Laboratory results as given in patent publication US11407741B2, “Compounds and their use as selective inhibitors of caspase-2” (priority 2017, dated 2022).
Where a SMILES comes first, the peptide text is derived from it. [ ]: non-standard residue; d: D form. The star is where a group is joined. Pro(3S-CH2tBu) = CC(C)(C)C[C@H]1CCN[C@@H]1C(=O)O; X4 = CN(Cc1ccccc1)C(=O)/C=C/C(=O)N(CC(=O)O)N*; X3 = O=C(O)CN(N*)C(=O)COc1c(F)cccc1F; Quinaldoyl = O=C(c1ccc2ccccc2n1)*; X1 = c1ncc(CO*)s1

Assays:
Caspase-2 = target: T1, Caspase-2 (Homo sapiens, UniProt P42575); test: Caspase-2 inhibition assay for irreversible inhibitors (kinact/KI, continuous method); type: biochemical; conditions: for Selectivity for Caspase 2: comparison of kinact/KI ratios regarding caspase 2 and 3
T1 construct: the Caspase-2 and Caspase-3 are human recombinant active enzymes; purchased Enzo Life ALX-201-057-U100
T1 sequence (P42575 170-325 limits assumed): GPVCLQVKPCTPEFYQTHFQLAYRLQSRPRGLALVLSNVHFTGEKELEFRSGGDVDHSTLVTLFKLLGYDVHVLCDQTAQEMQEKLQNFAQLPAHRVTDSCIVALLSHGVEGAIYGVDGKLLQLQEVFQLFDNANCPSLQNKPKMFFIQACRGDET
T1 sequence (P42575 348-452 limits assumed): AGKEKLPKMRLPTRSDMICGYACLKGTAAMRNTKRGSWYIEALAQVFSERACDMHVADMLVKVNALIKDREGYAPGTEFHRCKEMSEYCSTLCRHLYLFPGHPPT
Method: The efficiency of the comparative compound Δ2Me-TRP601, that is an already known group II Caspase inhibitor (inhibitor of Caspase-2, Caspase-3 and Caspase-7), has been assessed by a similar protocol described in Chauvier et al., 2011 Cell Death Dis 2011, 2:e203.
In this example, the Caspase-2 and Caspase-3 are human recombinant active enzymes that are respectively provided by Enzo Life® (ALX-201-057-U100) and R&D Systems® (707-C3-010/CF).
Caspase-2 is used at a final concentration of 0.1 nM in a “Caspase-2 buffer” containing 20 mM HEPES (pH 7.4), 5 mM DTT, 2 mM EDTA, 0.1% CHAPS and 800 mM succinate. Caspase-3 is used at a final concentration of 0.5 nM in a “Caspase-3 buffer” containing 20 mM HEPES (pH 7.4), 0.1% CHAPS, 5 mM DTT, and 2 mM EDTA.
The peptide substrates used for the enzymatic activity measurements are Ac-DEVD-AMC and Ac-VDVAD-AMC commercialized by EnzoLife® (respectively referenced ALX-260-031-M005 and ALX-260-060-M005). They are fluorogenic due to the presence of their AMC (7-amino-4-methylcoumarin) end group. The releasing of AMC enables to follow the enzymatic activity in fluorescence unit RFU over time in a 96-wells microplate.
The fluorescence values are measured at 37° C. with a spectrofluorometer with a microplate reader BMG FLUOstar OPTIMA. This apparatus is driven by the software Biolise® and is equipped with thermoelectric cooling device by Peltier effect. The mathematical analyses of the experimental data are done with the software Kaleidagraph®.
The inhibitory properties of the tested compounds are evaluated by the determination of the kinact/KI ratio regarding either Caspase-2 or Caspase-3 wherein: • kinact is the maximal inactivation rate constant, and • KI is the dissociation constant according to:
Said ratio is measured according to the continuous method (Allison R D. Curr Protoc Protein Sci. 2001 May; Chapter 3:Unit 3.5.; Chauvier et al., 2011 Cell Death Dis 2:e203; Tan et al., J Med Chem 2015, […]).
Briefly, Caspases activities were determined by monitoring the hydrolysis of fluorogenic substrates (λexc=355 nm, λem=460 nm) as a function of time, in the presence of untreated Caspases (control) or Caspases that had been incubated with a test compound, for 30 min minimum at 37° C. using a BMG Fluostar microplate reader (black 96-well microplates) and the initial velocity (V0) was determined from the linear portion of the progress curve.
Substrates and compounds were previously dissolved in DMSO at 10 mM, with the final solvent concentration kept at lower 4% (v/v). V0, relative velocities, KM and IC50 were determined from experimental data using Mars data Analysis 2.0 and Kaleidagraph softwares.
Inhibitor binding affinity (dissociation constant, KI) and first-order rate constant (k3) parameters were determined for Caspase-2 and Caspase-3 using the progress curve method. The ratio k3/KI was obtained by fitting the experimental data to the equations (F.U., fluorescence unit): […]
A continuous method of determination of the kinact/KI ratio was used for evaluating the inhibitory activity of the tested compounds against Caspase-2 and Caspase-3.
The reaction mixture is prepared by letting the enzyme and the buffer incubate at 37° C.
The tested inhibitory compounds are prepared at different concentrations (¼ IC50; ½ IC50; IC50; 2 IC50; 4 IC50) and put in the microplate.
Then the reaction mixture comprising the enzyme, the buffer and the substrate is rapidly added in the wells.
The activities of the enzyme are measured between 45 and 60 minutes.
The RFU (Relative Fluorescence Units)=f(times) curves are traced for each concentration of tested molecule according to the following equation: ((((−V0)*(exp(−kobs*m0)))+V0)/kobs*)+RFU0
in which: • V0 corresponds to the initial rate (RFU·s^−1) in the concentration of 0 of the tested inhibitory compound; • kobs is the inactivation rate constant; • RFU0 is the fluorescence value at t=0 min; and • m0 is the variable i.e. the inhibitor concentration.

HeLa cells = test: Protection against vincristine-induced cell death, propidium iodide flow cytometry; type: cell-based, human; set-up: Index of cell death: key to the marks not given beside the values
Method: Human HeLa cells are used in this model. HeLa cells (cervical cancer cell line) were obtained from American Type Cell Collection (ATCC), and were cultured in Dulbecco's Modified Eagle Medium (DMEM, High Glucose, GlutaMAX™, Pyruvate) (Gibco, Life technologies), supplemented with 10% FCS and antibiotics (Gibco, Life technologies).
Human HeLa cells are treated with a solution of Vincristine (Sigma Aldrich) (diluted in water at 5 mM). Vincristine works partly by binding to the Tubulin protein, stopping the cell from separating its chromosomes during the metaphase; the cell then undergoes apoptosis through a caspase-dependent process.
Propidium iodide (PI) (Sigma Aldrich) is used to evaluate plasma membrane permeabilisation, a sign of cell death.
24 hours before pharmacological treatment, HeLa cells were plated into 24-well plates. […] Cells were exposed or not (control), to 20 nM Vincristine for 48 hours.
The content of each well is collected is added to PBS and then centrifuged (900 rpm; 5 min).
The pellet obtained is put into 300 μL of a medium comprising propidium iodide and incubated (37° C., 5% CO2) in the dark for 5 minutes and then subjected to flow cytometry analysis.
Fluorescence-Activated Cell Sorting was performed using a FACSCalibur cytometer (Becton Dickinson, San Jose, Calif.). For each sample, data from 5,000 Cells were registered and analyzed with the CellQuest Pro software (Becton Dickinson). Analysis included FSC (Forward Scatter/relating to the cells'size) and SSC (Side Scatter/relating to the cells' granularity) parameters together with FL-1 and FL-3 channel.
The percentage of propidium iodide positive cells gives an estimation of cell death.

| SMILES | type of inhibition (irreversible) (Caspase-2) | Selectivity for Caspase 2 (Caspase-2) | also measured |
| --- | --- | --- | --- |
| CC(C)[C@H](NC(=O)c1ccc2ccccc2n1)C(=O)N[C@@H](CC(=O)O)C(=O)N[C@H](C(=O)N1CC[C@H](CC(C)(C)C)[C@H]1C(=O)NN(CC(=O)O)C(=O)COc1c(F)cccc1F)C(C)C [Compound 4, (S)-4-(((S)-1-((2S,3S)-2-(2-(carboxymethyl)-2-(2-(2,6-difluorophenoxy)acetyl)hydrazinecarbonyl)-3-neopentylpyrrolidin-1-yl)-3-methyl-1-oxobutan-2-yl)amino)-3-((S)-3-methyl-2-(quinoline-2-carboxamido)butanamido)-4-oxobutanoic acid] (Quinaldoyl-VDV[Pro(3S-CH2tBu)]-X3) | irreversible inhibitor | yes | – |
| CC(C)[C@H](NC(=O)c1ccc2ccccc2n1)C(=O)N[C@@H](CC(=O)O)C(=O)N[C@H](C(=O)N1CC[C@H](CC(C)(C)C)[C@H]1C(=O)N[C@@H](CC(=O)O)C(=O)OCc1cncs1)C(C)C [Compound 3, (S)-4-(((S)-1-((2S,3S)-2-(((S)-3-carboxy-1-oxo-1-(thiazol-5 - ylmethoxy)propan-2-yl)carbamoyl)-3-neopenthylpyrrolidin-1-yl)-3-methyl-1-oxobutan-2-yl)amino)-3-((S)-3-methyl-2-(quinoline-2-carboxamido)butanamido)-4-oxobutanoic acid] (Quinaldoyl-VDV[Pro(3S-CH2tBu)]D-X1) | – | – | Index of cell death (HeLa cells; 20 nM Vincristine for 48 hours, propidium iodide positive cells): ++; Protection against apoptotic death induced by vincristine (HeLa cells; compound added 1 hour before vincristine): protect the cells against apoptotic death induced by vincristine in a dose-dependent manner |
| CC(C)[C@H](NC(=O)c1ccc2ccccc2n1)C(=O)N[C@@H](CC(=O)O)C(=O)N[C@H](C(=O)N1CC[C@H](CC(C)(C)C)[C@H]1C(=O)NN(CC(=O)O)C(=O)/C=C/C(=O)N(C)Cc1ccccc1)C(C)C [Compound 5, (S)-4-(((S)-1-((2S,3S)-2-(2-((E)-4-(benzyl(methyl)amino)-4-oxobut-2-enoyl)-2-(carboxymethyl)hydrazinecarbonyl)-3-neopentylpyrrolidin-1-yl)-3-methyl-1-oxobutan-2-yl)amino)-3-((S)-3-methyl-2-(quinoline-2-carboxamido)butanamido)-4-oxobutanoic acid] (Quinaldoyl-VDV[Pro(3S-CH2tBu)]-X4) | irreversible inhibitor | yes | – |
| CC(C)[C@H](NC(=O)[C@H](CC(=O)O)NC(=O)C(=O)Nc1ccccc1C(C)(C)C)C(=O)N1CC[C@H](CC(C)(C)C)[C@H]1C(=O)NN(CC(=O)O)C(=O)COc1c(F)cccc1F [Compound 6, (S)-3-(2-((2-(tert-butyl)phenyl)amino)-2-oxoacetamido)-4-(((S)-1-((2S,3S)-2-(2-(carboxymethyl)-2-(2-(2,6-difluorophenoxy)acetyl)hydrazinecarbonyl)-3-neopentylpyrrolidin-1-yl)-3-methyl-1-oxobutan-2-yl)amino)-4-oxobutanoic acid] | irreversible inhibitor | yes | – |
| CC(C)[C@H](NC(=O)c1ccc2ccccc2n1)C(=O)N[C@@H](CC(=O)O)C(=O)N[C@H](C(=O)N1CC[C@H](CC(C)(C)C)[C@H]1C(=O)N[C@@H](CC(=O)O)C(=O)COc1c(F)cccc1F)C(C)C (single isomer, unassigned) [Compound 2 enantiomer a] | – | – | k3/KI Casp2 (Caspase-2; human recombinant Caspase-2 0.1 nM, 37° C.): 1 894 076 M^−1 · s^−1; Selectivity ratio (C2/C3) (Caspase-2; ratio of k3/KI Casp2 to Casp3): 721 |
